Patent publication US20080292550A1, “Fluorinated 3'-Deoxythymidine Derivatives, a Method for Their Preparation and Their Use” (MAX-DELBRUECK-CENTRUM FUER MOLEKULARE MEDIZIN, priority 2005, published 2008)
Entries after “also recorded” stand apart in the source; their conditions may differ. Where two headings read alike, the source gives them in different places.

Legend:
B cell lymphoma = conditions: 0.1 MBq, B cell lymphoma mouse model; cited from earlier work
fibrosarcoma = conditions: about 2.5 MBq, fibrosarcoma mouse model; cited from earlier work
[1] = Wagner et al., Cancer Research 2003; cited from earlier work
melanoma = experiment: Organ activities in melanoma-bearing nude mice
Text: A prognosis as to the tumor/background ratio in a tumor image can be made by means of the tumor/blood radioactivity ratio of a tracer in a tumor model.

[2] = quenched product
[3] = test system: non-parvicellular lung tumor; experiment: Organ activities in lung tumor-bearing nude mice; conditions: about 0.5 MBq non-quenched tracer i.v.
[4] = about 0.5 MBq quenched tracer i.v., after 60 min

SMILES	tumor/blood radioactivity ratio (B cell lymphoma)	tumor/blood radioactivity ratio (fibrosarcoma)	storage in the spleen of mice [1]	tumor/blood radioactivity ratio (melanoma; [4])	tumor/organ radioactivity ratios (melanoma; [4])	storage of 18F in bone (melanoma; about 0.5 MBq quenched tracer i.v., compared with non-quenched product)	PET imaging of tumor (melanoma; melanoma mouse model)	passage of the blood-brain barrier (melanoma; mouse animal experiments)	storage in tumor (melanoma; mouse model, lung tumor and melanoma (summary))	increase of the fluoride concentration (isotonic NaCl solution at 21° C., over 4 hours, quenched with triethylamine)	stability in isotonic NaCl solution (isotonic NaCl solution, room temperature, before quenching step)	increase of the F ion concentration (isotonic NaCl solution, room temperature, within 1 hour, before quenching step) [%]	stability in serum ([2]; serum at room temperature (21° C.))	stability in serum ([2]; serum in an incubator at 37° C.)	absorption of 18F in bone tissue ([3]; 30 and 60 min)	storage of activity in organs ([3]; organ activities after 30 min and 60 min)
Cc1cn([C@H]2C[C@H]([18F])[C@@H](CO)O2)c(=O)[nH]c1=O [^18F-FLT, 3′-^18F-fluoro-3′-deoxythymidine]	about 7	1.8	Marked storage													
[N-]=[N+]=N[C@H]1C[C@H](n2cc(C([18F])[18F])c(=O)[nH]c2=O)O[C@@H]1CO [α,α-^18F2-AZT, 5,5-^18F-difluoro-3′-deoxy-3′-azidothymidine]				3.2	high	lower	allows PET imaging of melanoma in a mouse model	passes the blood-brain barrier; also recorded: capable of passing the blood-brain barrier	stored in lung tumor and in melanoma	scarcely any increase	stable	3 to 4.5	A similar result	markedly improved stability	particularly high	activity was stored in the tumor, in the spleen and in the colon
